Source: article PMC4491105, “Synthesis and anticancer activity of thiosubstituted purines” (Medicinal Chemistry Research, 2015)
Converted amounts (≈) assume the structure as drawn. “Also recorded” adds a separate entry of the source.

Tested on: not given
Assay: not given
Details: not given

| Structure (SMILES) | melting point |
| --- | --- |
| C#CCSc1nc(Cl)nc2ncn(C)c12 [Compound 5a, 2-chloro-6-(prop-2-ynylthio)-7-methylpurine] | 183 to 184 °C |
| Cn1cnc2nc(Cl)nc(SCC#CCN3CCCC3)c21 [Compound 5b, 2-chloro-6-(4-N-pyrrolidinylbut-2-ynylthio)-7-methylpurine] | 129 to 130 °C |

Tested on: HFF-1 (human fibroblast cell line)
Assay: Antiproliferative WST-1 assay, normal fibroblasts HFF-1 (toxicity control)
Assay type: cell-based
Details: HFF-1 cells
Procedure: (§1) Compounds were evaluated for their anticancer activity using […] cultured cell lines: SNB-19 (human glioblastoma, DSMZ—German Collection of Microorganisms and Cell Cultures, Braunschweig, Germany), C-32 (human amelanotic melanoma, ATCC—American Type Culture Collection, Manassas, VA, USA), T47D (human ductal breast epithelial tumor cell line, ATCC, Manassas, VA, USA), and HFF-1 (human fibroblast cell line, ATCC, Manassas, VA, USA). The cultured cells were kept at 37 °C and 5 % CO2. The cells were seeded (1 × 10^4 cells/well/100 μl DMEM supplemented with 10 % FCS and streptomycin and penicillin) using 96-well plates (Corning).
(§2) In recent years, tetrazolium salts have been described which can be used for the measurement of cell proliferation and viability. The tetrazolium salts are cleaved to formazan by cellular enzymes. An expansion in the number of viable cells results in an increase in the overall activity of mitochondrial dehydrogenases in the sample. This augmentation in enzyme activity leads to an increase in the amount of formazan dye formed, which directly correlates with the number of metabolically active cells in the culture. The formazan dye produced by metabolically active cells is quantified by a scanning ELISA reader by measuring the absorbance of the dye solution at appropriate wavelengths (λ = 420–480 nm with a reference wavelength λ = 600 nm).
(§3) Antiproliferative effect of compounds was determined using the Cell Proliferation Reagent WST-1 assay (Roche Diagnostics, Mannheim, Germany). After exposure to tested compounds (at concentrations between 0 and 100 μg/ml) for 72 h, cells were incubated with WST-1 (10 μl) for 1 h, and the absorbance of the samples against a background control was read at 450 nm using with a reference wavelength λ = 600 nm a microplate reader. Results are expressed as means of at least two independent experiments performed in triplicate.

| Structure (SMILES) | Toxicity against normal fibroblasts HFF-1 (in words) |
| --- | --- |
| Cn1cnc2nc(Cl)nc(SCC#CCN3CCCC3)c21 [Compound 5b, 2-chloro-6-(4-N-pyrrolidinylbut-2-ynylthio)-7-methylpurine] | weak active |

Same assay, conditions: normal human fibroblasts HFF-1, 72 h exposure, WST-1

| Structure (SMILES) | EC50 | Antiproliferative activity EC50 HFF-1 |
| --- | --- | --- |
| Cn1cnc([N+](=O)[O-])c1Sc1ncnc2nc[nH]c12 [Azathioprine, reference compound] | 55.9 µg/mL (≈ 202 µM) | – |
| N.N.[Cl][Pt][Cl] [Cisplatin, reference compound] | – | 30.00 µg/mL |
| Cn1cnc([N+](=O)[O-])c1Sc1nc(Cl)c2c(ncn2C)n1 [Compound 2a] | > 50 µg/mL | – |
| C=CCSc1nc(Sc2c([N+](=O)[O-])ncn2C)nc2ncn(C)c12 [Compound 2b] | > 50 µg/mL | – |
| Cn1cnc([N+](=O)[O-])c1Sc1nc(Cl)nc2ncn(C)c12 [Compound 3a] | 34.9 µg/mL (≈ 107 µM) | – |
| COc1nc(Sc2c([N+](=O)[O-])ncn2C)c2c(ncn2C)n1 [Compound 3b] | > 50 µg/mL | – |
| CSc1nc(Sc2c([N+](=O)[O-])ncn2C)c2c(ncn2C)n1 [Compound 3c] | > 50 µg/mL | – |
| Cn1cnc([N+](=O)[O-])c1Sc1nc(Sc2c([N+](=O)[O-])ncn2C)c2c(ncn2C)n1 [Compound 3d, 7-methyl-2,6-di(1-methyl-4-nitroimidazol-5-ylthio)purine] | > 50 µg/mL | – |
| CCN(CC)CCSc1nc(Cl)nc2ncn(C)c12 [Compound 4a] | > 50 µg/mL | – |
| C#CCSc1nc(Cl)nc2ncn(C)c12 [Compound 5a, 2-chloro-6-(prop-2-ynylthio)-7-methylpurine] | 49 µg/mL (≈ 205 µM) | – |
| Cn1cnc2nc(Cl)nc(SCC#CCN3CCCC3)c21 [Compound 5b, 2-chloro-6-(4-N-pyrrolidinylbut-2-ynylthio)-7-methylpurine] | 43.1 µg/mL (≈ 134 µM) | – |

Tested on: SNB-19 (human glioblastoma)
Assay: Antiproliferative WST-1 assay, glioblastoma SNB-19
Assay type: cell-based
Details: Homo sapiens, SNB-19, 72 h, SNB-19 cells, 72 h exposure, WST-1; read-out: Antiproliferative activity EC50 SBN-19
Procedure: as §1, §2, §3

| Structure (SMILES) | EC50 |
| --- | --- |
| Cn1cnc([N+](=O)[O-])c1Sc1ncnc2nc[nH]c12 [Azathioprine, reference compound] | 37.2 µg/mL (≈ 134 µM) |
| Cn1cnc([N+](=O)[O-])c1Sc1nc(Cl)c2c(ncn2C)n1 [Compound 2a] | 17.9 µg/mL (≈ 55 µM) |
| C=CCSc1nc(Sc2c([N+](=O)[O-])ncn2C)nc2ncn(C)c12 [Compound 2b] | 33.3 µg/mL (≈ 91.5 µM) |
| Cn1cnc([N+](=O)[O-])c1Sc1nc(Cl)nc2ncn(C)c12 [Compound 3a] | 30.4 µg/mL (≈ 93.3 µM) |
| COc1nc(Sc2c([N+](=O)[O-])ncn2C)c2c(ncn2C)n1 [Compound 3b] | > 50 µg/mL |
| CSc1nc(Sc2c([N+](=O)[O-])ncn2C)c2c(ncn2C)n1 [Compound 3c] | > 50 µg/mL |
| Cn1cnc([N+](=O)[O-])c1Sc1nc(Sc2c([N+](=O)[O-])ncn2C)c2c(ncn2C)n1 [Compound 3d, 7-methyl-2,6-di(1-methyl-4-nitroimidazol-5-ylthio)purine] | > 50 µg/mL |
| CCN(CC)CCSc1nc(Cl)nc2ncn(C)c12 [Compound 4a] | 28.8 µg/mL (≈ 96 µM) |
| C#CCSc1nc(Cl)nc2ncn(C)c12 [Compound 5a, 2-chloro-6-(prop-2-ynylthio)-7-methylpurine] | 30.9 µg/mL (≈ 130 µM) |
| Cn1cnc2nc(Cl)nc(SCC#CCN3CCCC3)c21 [Compound 5b, 2-chloro-6-(4-N-pyrrolidinylbut-2-ynylthio)-7-methylpurine] | 5 µg/mL (≈ 15.5 µM) |

Same assay, conditions: SNB-19, C-32 and T47D cell lines overall

| Structure (SMILES) | Anticancer activity against tested cell lines (in words) |
| --- | --- |
| Cn1cnc([N+](=O)[O-])c1Sc1nc(Sc2c([N+](=O)[O-])ncn2C)c2c(ncn2C)n1 [Compound 3d, 7-methyl-2,6-di(1-methyl-4-nitroimidazol-5-ylthio)purine] | inactive |

Same assay, conditions: SNB-19 cells, 72 h exposure, WST-1

| Structure (SMILES) | Antiproliferative activity EC50 SBN-19 |
| --- | --- |
| N.N.[Cl][Pt][Cl] [Cisplatin, reference compound] | 4.45 µg/mL |

Same assay, conditions: SNB-19 cells, compared with azathioprine

| Structure (SMILES) | Activity against SNB-19 cell line (in words) |
| --- | --- |
| Cn1cnc([N+](=O)[O-])c1Sc1nc(Cl)c2c(ncn2C)n1 [Compound 2a] | more active than azathioprine |
| C=CCSc1nc(Sc2c([N+](=O)[O-])ncn2C)nc2ncn(C)c12 [Compound 2b] | more active than azathioprine |
| Cn1cnc([N+](=O)[O-])c1Sc1nc(Cl)nc2ncn(C)c12 [Compound 3a] | more active than azathioprine |

Tested on: C-32 (human amelanotic melanoma)
Assay: Antiproliferative WST-1 assay, melanoma C-32
Assay type: cell-based
Details: C-32 cells
Procedure: as §1, §2, §3

| Structure (SMILES) | Activity against C-32 cell line (in words) |
| --- | --- |
| Cn1cnc([N+](=O)[O-])c1Sc1nc(Cl)c2c(ncn2C)n1 [Compound 2a] | more active than azathioprine |
| C=CCSc1nc(Sc2c([N+](=O)[O-])ncn2C)nc2ncn(C)c12 [Compound 2b] | more active than azathioprine |
| Cn1cnc([N+](=O)[O-])c1Sc1nc(Cl)nc2ncn(C)c12 [Compound 3a] | more active than azathioprine; also recorded: good activity |

Same assay, conditions: C-32 cells, 72 h exposure, WST-1

| Structure (SMILES) | Antiproliferative activity EC50 C-32 |
| --- | --- |
| N.N.[Cl][Pt][Cl] [Cisplatin, reference compound] | 6.28 µg/mL |

Same assay, conditions: Homo sapiens, C32; C-32 cells, 72 h exposure, WST-1

| Structure (SMILES) | EC50 |
| --- | --- |
| Cn1cnc([N+](=O)[O-])c1Sc1ncnc2nc[nH]c12 [Azathioprine, reference compound] | 35.6 µg/mL (≈ 128 µM) |
| Cn1cnc([N+](=O)[O-])c1Sc1nc(Cl)c2c(ncn2C)n1 [Compound 2a] | 21.8 µg/mL (≈ 66.8 µM) |
| C=CCSc1nc(Sc2c([N+](=O)[O-])ncn2C)nc2ncn(C)c12 [Compound 2b] | 35.3 µg/mL (≈ 97.2 µM) |
| Cn1cnc([N+](=O)[O-])c1Sc1nc(Cl)nc2ncn(C)c12 [Compound 3a] | 12.8 µg/mL (≈ 39.3 µM) |
| COc1nc(Sc2c([N+](=O)[O-])ncn2C)c2c(ncn2C)n1 [Compound 3b] | > 50 µg/mL |
| CSc1nc(Sc2c([N+](=O)[O-])ncn2C)c2c(ncn2C)n1 [Compound 3c] | > 50 µg/mL |
| Cn1cnc([N+](=O)[O-])c1Sc1nc(Sc2c([N+](=O)[O-])ncn2C)c2c(ncn2C)n1 [Compound 3d, 7-methyl-2,6-di(1-methyl-4-nitroimidazol-5-ylthio)purine] | > 50 µg/mL |
| CCN(CC)CCSc1nc(Cl)nc2ncn(C)c12 [Compound 4a] | 22.5 µg/mL (≈ 74.9 µM) |
| C#CCSc1nc(Cl)nc2ncn(C)c12 [Compound 5a, 2-chloro-6-(prop-2-ynylthio)-7-methylpurine] | 35.4 µg/mL (≈ 148 µM) |
| Cn1cnc2nc(Cl)nc(SCC#CCN3CCCC3)c21 [Compound 5b, 2-chloro-6-(4-N-pyrrolidinylbut-2-ynylthio)-7-methylpurine] | 7.58 µg/mL (≈ 23.6 µM) |

Tested on: T47D (human ductal breast epithelial tumor cell line)
Assay: Antiproliferative WST-1 assay, breast tumor T47D
Assay type: cell-based
Details: Homo sapiens; T47D cells, 72 h exposure, WST-1; read-out: Antiproliferative activity EC50 T47-D
Procedure: as §1, §2, §3

| Structure (SMILES) | EC50 |
| --- | --- |
| Cn1cnc([N+](=O)[O-])c1Sc1ncnc2nc[nH]c12 [Azathioprine, reference compound] | 39 µg/mL (≈ 141 µM) |
| Cn1cnc([N+](=O)[O-])c1Sc1nc(Cl)c2c(ncn2C)n1 [Compound 2a] | 41.1 µg/mL (≈ 126 µM) |
| C=CCSc1nc(Sc2c([N+](=O)[O-])ncn2C)nc2ncn(C)c12 [Compound 2b] | 49.6 µg/mL (≈ 136 µM) |
| Cn1cnc([N+](=O)[O-])c1Sc1nc(Cl)nc2ncn(C)c12 [Compound 3a] | > 50 µg/mL |
| COc1nc(Sc2c([N+](=O)[O-])ncn2C)c2c(ncn2C)n1 [Compound 3b] | > 50 µg/mL |
| CSc1nc(Sc2c([N+](=O)[O-])ncn2C)c2c(ncn2C)n1 [Compound 3c] | 48.6 µg/mL (≈ 144 µM) |
| Cn1cnc([N+](=O)[O-])c1Sc1nc(Sc2c([N+](=O)[O-])ncn2C)c2c(ncn2C)n1 [Compound 3d, 7-methyl-2,6-di(1-methyl-4-nitroimidazol-5-ylthio)purine] | > 50 µg/mL |
| CCN(CC)CCSc1nc(Cl)nc2ncn(C)c12 [Compound 4a] | 41.3 µg/mL (≈ 138 µM) |
| C#CCSc1nc(Cl)nc2ncn(C)c12 [Compound 5a, 2-chloro-6-(prop-2-ynylthio)-7-methylpurine] | 44.3 µg/mL (≈ 186 µM) |
| Cn1cnc2nc(Cl)nc(SCC#CCN3CCCC3)c21 [Compound 5b, 2-chloro-6-(4-N-pyrrolidinylbut-2-ynylthio)-7-methylpurine] | 46 µg/mL (≈ 143 µM) |

Same assay, conditions: T47D cells

| Structure (SMILES) | Activity against T47D cell line (in words) |
| --- | --- |
| Cn1cnc2nc(Cl)nc(SCC#CCN3CCCC3)c21 [Compound 5b, 2-chloro-6-(4-N-pyrrolidinylbut-2-ynylthio)-7-methylpurine] | weak active |

Same assay, conditions: T47D cells, 72 h exposure, WST-1

| Structure (SMILES) | Antiproliferative activity EC50 T47-D |
| --- | --- |
| N.N.[Cl][Pt][Cl] [Cisplatin, reference compound] | 8.79 µg/mL |
